Patent US20210401809A1, “PHARMACEUTICAL COMPOUNDS” (Sareum Limited, priority 2016, published 2021)

Assays:
[1] = system: TYK2-independent cell line (LOUCY); settings: Sanda et al.; cited from earlier work
[2] = system: TYK2 dependent cell lines (T-ALL cells); settings: Sanda et al.; read-out: IC50 for inhibiting growth of TYK2 dependent cell lines; cited from earlier work
[3] = 150 mg/kg Q5D IP
Protocol: A total of 40 male SCID mice aged 5-7 weeks were used for the study. These were purchased from Charles River and allowed to acclimatize for 7 days prior to tumour implantation. Animals were housed in IVC cages (up to 5 per cage) with individual mice identified by tail mark. All animals were allowed free access to a standard certified commercial diet and sanitised water during the study. The holding room was maintained under standard conditions: 20-24° C., 40-70% humidity and a 12 h light/dark cycle.
CCRF-HSB-2 cells (5×10^6 in matrigel) were implanted onto the rear dorsum of male SCID mice using a 25-gauge needle. When tumours reached a size of approximately 100-150 mm^3 the mice were randomly assigned to the following treatment groups.
Dosing solutions were prepared on the day of study. Formulation was 0.5% methylcellulose/0.025% Tween-20 at dosing volume of 10 ml/kg based on animal weight on day of dosing. Animals were dosed orally twice daily (12 hours apart) for 18 consecutive days.

[4] = system: CCRF-HSB-2 tumours; assay: Tumour growth delay study in mice bearing CCRF-HSB-2 tumours (Example 8); assay type: in vivo, male SCID mice; settings: for T/C (test versus control) at the end of the study period: 18 days
Protocol: (§1) Dosing solutions were prepared on the day of study.

[5] = system: MOLT-4 tumours; assay: Efficacy study in mice bearing MOLT-4 tumours (Example 7); assay type: in vivo, male SCID mice; settings: 21 days; for effect on MOLT-4 tumour growth: FIG. 7
Source text: MOLT-4 cells (1×10^7 in matrigel) were implanted onto the rear dorsum of male SCID mice using a 25-gauge needle. When tumours reached approximately 100 mm^3 the mice were randomly assigned to the following treatment groups.

[6] = system: MOLT-4 xenografts; assay: Tumour growth delay study in mice bearing MOLT-4 xenografts (Example 9); assay type: in vivo, male SCID mice
Protocol: (§2) A total of 50 male SCID mice aged 5-7 weeks were used for the study. These were bred in-house at Axis Bioservices. Animals were housed in IVC cages (up to 5 per cage) with individual mice identified by tail mark. All animals were allowed free access to a standard certified commercial diet and sanitised water during the study. The holding room was maintained under standard conditions: 20-24° C., 40-70% humidity and a 12 h light/dark cycle.
(§3) MOLT-4 cells (1×10^7 in matrigel) were implanted onto the rear dorsum of male SCID mice using a 25-gauge needle. When tumours reached approximately 100-150 mm^3 the mice were randomly assigned to the following treatment groups.
as §1
(§4) The formulation for cyclophosphamide was PBS at a dosing volume of 10 ml/kg based on animal weight on day of dosing.
(§5) For combination dosing, both compounds were dosed at the same time.

[7] = system: PARP cleavage in MOLT-4 cells; assay: Western blot assay, chronic compound treatment; assay type: cell-based; settings: 48 hrs, tested 0.03-3 μM, FIG. 2
Protocol: MOLT-4 cells were treated with Compounds 25 and 29 (of Example 1) and three benchmark inhibitors (GLPG0634 (Filgotinib, developed by Galapagos), TG101209 and GDC-046) as comparative examples at five concentrations (3, 1, 0.3, 0.1 and 0.03 μM), for 48 hrs.
Cell lysates were analysed by Western blot and probed with antibodies against PARP and Actin.
The details of the antibodies used are set out in the table below.
Protocol • Cell were plated in 6-well plates at 4e6 cells per well in 6 ml of media (RPMI+10% FBS) and incubated for at least 1 h at 37° C., 5% CO2. • Cells were treated with the indicated concentrations of compounds for 48 hrs. • Cells were harvested by centrifuging at 12,000 rpm for 1 min (4° C.), washed in ice cold PBS and centrifuged again at 12,000 rpm for 1 min (4° C.). • The supernatant was removed and the cell pellet snap frozen on dry ice. • Cells were lysed in RIPA buffer (with protease and phosphatase inhibitors) and incubated on ice for 30 min. • Cellular debris was pelleted at 13,000 rpm for 5 min at 4° C., supernatant was transferred to a fresh tube. • Protein concentration was estimated using a BCA assay. • 30 μg of protein was loaded onto 4-12% NuPAGE Novex Bis-Tris protein gels (MOPs buffer). • Protein was transferred to a PVDF membrane using dry transfer (iBlot) and western blotting performed against the antigens of interest.

[8] = system: Loucy cells (TYK2-independent T-ALL); assay: Cell proliferation assay (ATPlite, 7 days); assay type: cell-based; settings: 168 h
Protocol: (§6) Jurkat, MOLT-4, CCRF-CEM and CCRF-HSB-2 cells are all TYK2-dependent T-ALL cells. Loucy cells are TYK2-independent T-ALL cell lines. Dexamethasone, Etoposide and Paclitaxel were used as positive controls. Compound effects were studied 7 days after compound addition […] Luminescent product was detected using a BMG FLUOstar plate reader. • The data were analysed using a 4-parameter logistic equation in GraphPad Prism.

[9] = system: CCRF-HSB-2 cells (TYK2-dependent T-ALL); assay: Cell proliferation assay (ATPlite, 7 days); assay type: cell-based; settings: Homo sapiens, CCRF-HSB-2, 168 h
Protocol: as §6

[10] = system: CCRF-CEM cells (TYK2-dependent T-ALL); assay: Cell proliferation assay (ATPlite, 7 days); assay type: cell-based; settings: Homo sapiens, 168 h
Protocol: as §6

[11] = system: Jurkat cells (TYK2-dependent T-ALL); assay: Cell proliferation assay (ATPlite, 7 days); assay type: cell-based; settings: Homo sapiens, 168 h
Protocol: as §6

[12] = system: MOLT-4 cells (TYK2-dependent T-ALL); assay: Cell proliferation assay (ATPlite, 7 days); assay type: cell-based; settings: Homo sapiens, MOLT-4, 168 h
Protocol: as §6

[13] = biological target: T1, JAK3 (Homo sapiens, UniProt P52333); assay: In vitro enzyme inhibition, 33P-ATP filter kinase assay (Reaction Biology); assay type: biochemical
T1 construct: 781-1124; GST (N); purchased Reaction Biology Corp. (contract assay); host or cells: Baculovirus in Sf21 insect cells
T1 sequence (P52333 781-1124): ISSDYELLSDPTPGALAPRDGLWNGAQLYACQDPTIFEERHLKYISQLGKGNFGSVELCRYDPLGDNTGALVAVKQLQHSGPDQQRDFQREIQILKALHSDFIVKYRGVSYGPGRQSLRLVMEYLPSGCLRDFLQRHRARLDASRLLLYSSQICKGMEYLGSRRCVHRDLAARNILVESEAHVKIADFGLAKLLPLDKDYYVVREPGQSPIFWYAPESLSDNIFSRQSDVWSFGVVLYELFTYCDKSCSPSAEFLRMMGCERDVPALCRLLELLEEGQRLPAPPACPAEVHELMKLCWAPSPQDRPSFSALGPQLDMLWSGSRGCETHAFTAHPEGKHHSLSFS
Protocol: (§7) Compounds of the invention were assayed for their ability to inhibit TYK2 kinase and other JAK kinases.
(§8) Substrates and kinases used in the assays are identified in Table 2 below.
(§9) JAK3tide=[Ac-[…]-NH2]

[14] = biological target: T2, TYK2 kinase (Homo sapiens, UniProt P29597); assay: as above; assay type: biochemical
T2 construct: 833-1187; GST (N); purchased Reaction Biology Corp. (contract assay); host or cells: Baculovirus in Sf21 insect cells
T2 sequence (P29597 833-1187): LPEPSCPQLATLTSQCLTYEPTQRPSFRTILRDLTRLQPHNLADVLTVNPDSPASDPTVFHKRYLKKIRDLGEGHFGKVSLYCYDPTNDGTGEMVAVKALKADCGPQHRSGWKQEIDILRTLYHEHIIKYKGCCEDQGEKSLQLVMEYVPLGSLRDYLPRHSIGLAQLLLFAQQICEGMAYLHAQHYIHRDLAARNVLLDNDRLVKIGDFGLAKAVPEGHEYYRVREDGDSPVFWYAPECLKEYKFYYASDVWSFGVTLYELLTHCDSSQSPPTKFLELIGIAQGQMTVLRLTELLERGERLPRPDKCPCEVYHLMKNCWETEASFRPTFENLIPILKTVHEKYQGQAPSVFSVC
Protocol: as §7, §8, §9

[15] = biological target: T3, JAK1 (Homo sapiens, UniProt P23458); assay: as above; assay type: biochemical
T3 construct: 866-1154; GST (N); purchased Reaction Biology Corp. (contract assay); host or cells: Baculovirus in Sf21 insect cells
T3 sequence (P23458 866-1154): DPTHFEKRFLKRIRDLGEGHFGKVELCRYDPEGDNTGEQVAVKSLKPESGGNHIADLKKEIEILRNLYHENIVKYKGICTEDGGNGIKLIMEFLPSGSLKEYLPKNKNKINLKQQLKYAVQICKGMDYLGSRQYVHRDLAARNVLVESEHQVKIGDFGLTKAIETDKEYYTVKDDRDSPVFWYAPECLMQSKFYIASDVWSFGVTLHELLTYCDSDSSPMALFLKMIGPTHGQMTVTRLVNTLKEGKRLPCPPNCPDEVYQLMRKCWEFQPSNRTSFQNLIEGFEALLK
Protocol: as §7, §8, §9

[16] = Animal bodyweight in MOLT-4 xenograft study (Example 9); assay type: in vivo, male SCID mice; settings: 25 and 50 mg/kg BID PO, 21 days
Protocol: as §2, §3, §1, §4, §5

[17] = system: pSTAT1, pTYK2, cleaved PARP in MOLT-4 tumours; assay: PKPD study: Western blot of tumour tissue; assay type: in vivo, male SCID mice; settings: FIG. 6
Protocol: (§10) Male SCID mice were implanted with MOLT-4 tumour cells (1×10^7 in 50% matrigel). When tumours reached approximately 150 mm^3 animals received a single dose of test compound. Animals to be sampled at 24 hrs also received a second dose at 12 hrs.
(§11) At 1, 6 and 24 h animals were sacrificed and plasma prepared. Tumour tissue was removed and divided into 2 sections—one for bioanalysis and the second for homogenisation for western blotting.
Tumour tissue was homogenised in lysis buffer supplemented with protease and phosphatase inhibitors. Protein in individual samples was quantified using a commercially available BCA kit.
50 μg total protein was run on a 4-20% pre-cast gel and transferred to PVDF membrane before being incubated with the following antibodies: • pSTAT1 • STAT1 • pTYK2 • TYK2 • Cleaved PARP • B-actin • Anti-rabbit IgG

[18] = PKPD study: plasma and tumour concentrations; assay type: in vivo, male SCID mice; settings: MOLT-4 tumour-bearing mice
Protocol: as §10, §11

JAK Inhibitor I
sensitivity of TYK2-independent cell line (LOUCY) [1]: insensitive | IC50 [2]: 1000 to 3000 nM

O=P1(N(CCCl)CCCl)NCCCO1 (stereo not drawn) [cyclophosphamide, reference compound]
animal bodyweight [3]: lost weight this was not significant | T/C (test versus control) at the end of the study period ([4]; 150 mg/kg Q5D IP): 5.9% | T/C (test versus control), tumour volume, end of study ([5]; 150 mg/kg Q5D): 51.7% | T/C (test versus control), tumour weight, end of study ([5]; 150 mg/kg Q5D): 49.0% | T/C (test versus control) at the end of the study period ([6]; 150 mg/kg Q5D IP): 26.2%

NC(=O)c1nc(-c2c(Cl)cccc2Cl)oc1Nc1ccc(C(=O)N2CCOCC2)cc1 [Compound 29, 2-(2,6-dichloro-phenyl)-5-[4-(morpholine-4-carbonyl)-phenylamino]-oxazole-4-carboxylic acid amide]
concentrations at which cleaved PARP is present (apoptosis) [7]: ≥ 3 µM | IC50 [8]: 1.7 µM | IC50 [9]: 1.4 µM | IC50 [10]: 1.8 µM | IC50 [11]: 0.6 µM | IC50 [12]: 1.2 µM | T/C (test versus control) at the end of the study period ([4]; 25 mg/kg BID PO): 18.1% | T/C (test versus control) at the end of the study period ([4]; 50 mg/kg BID PO): 10.8% | control of CCRF-HSB-2 tumour growth ([4]; 25 and 50 mg/kg BID PO, similar inhibition at both doses (p=0.6397), FIG. 8): good efficacy in controlling CCRF-HSB-2 tumour growth | tumour weight at Day 18 versus vehicle only ([4]; 25 and 50 mg/kg BID, p<0.0001, FIG. 9): significantly smaller | IC50 [13]: 90.8 nM | IC50 [14]: 0.617 nM | IC50 [15]: 16.8 nM | bodyweight during the study [16]: maintained at pre-treatment levels | T/C (test versus control) at the end of the study period ([6]; 25 mg/kg BID PO, 21 days): 26.8% | T/C (test versus control) at the end of the study period ([6]; 50 mg/kg BID PO, 21 days): 16.6%

NC(=O)c1nc(-c2c(F)cccc2Cl)oc1Nc1ccc(C(=O)N2CCOCC2)cc1 [Compound 25, 2-(2-chloro-6-fluoro-phenyl)-5-[4-(morpholine-4-carbonyl)-phenylamino]-oxazole-4-carboxylic acid amide]
concentrations at which cleaved PARP is present (apoptosis) [7]: ≥ 1 µM | IC50 [8]: 0.35 µM | IC50 [9]: 0.43 µM | IC50 [10]: 0.38 µM | IC50 [11]: 0.15 µM | IC50 [12]: 0.27 µM | T/C (test versus control), tumour volume, end of study ([5]; 25 mg/kg BID per os): 63.5% | T/C (test versus control), tumour weight, end of study ([5]; 25 mg/kg BID per os): 60.7% | effect on MOLT-4 tumour growth ([5]; 25 mg/kg BID per os): slowing growth but not resulting in tumour regression | T/C (test versus control), tumour volume, end of study ([5]; 50 mg/kg BID per os): 27.0% | T/C (test versus control), tumour weight, end of study ([5]; 50 mg/kg BID per os): 24.0% | effect on MOLT-4 tumour growth ([5]; 50 mg/kg BID per os): tumour regression | level of phosphorylated STAT1 in tumour ([17]; MOLT-4 tumour tissue at 1, 6, 24 h vs vehicle): reduction in level of phosphorylated STAT1 at t=1 h, returning to normal in comparison with vehicle treated controls between 6 and 24 h | cleaved Parp in tumour ([17]; MOLT-4 tumour tissue, relative to vehicle treated controls): An increase in cleaved Parp, relative to vehicle treated controls, was observed between 1 and 24 h | Phosphorylated TYK2 levels in tumour ([17]; MOLT-4 tumour tissue, second dose at 12 hrs): increased at 24 h following the initial dose | IC50 [13]: 43.2 nM | IC50 [14]: 0.564 nM | IC50 [15]: 28.9 nM | maximal concentration in plasma ([18]; plasma, single dose, FIG. 4): > 4000 ng/mL | time of maximal exposure in plasma after dosing ([18]; plasma, single dose, FIG. 4): one | maximal concentration in tumour tissue ([18]; tumour tissue, FIG. 5): > 3000 ng per gram of tumour tissue | time of maximal exposure in tumour tissue after dosing ([18]; tumour tissue, FIG. 5): six
